Assays:
[1] = tested on: constitutively active CaMKIIδ; test: CaMKII inhibition in HEK293 cells expressing constitutively active CaMKIIδ; type: cell-based
Source text: (§1) FIG. 1A, FIG. 1B, FIG. 1C, and FIG. 1D show high-throughput screening to identify CaMKII inhibitors. A stable human cell line that expresses CaMKAR and constitutively active human CaMKIIδ (cardiac isoform) was developed. […] In these cells, the JHDLv3 library, which contains 4,475 compounds that are approved for human use, was screened (FIG. 1B). This primary screen identified 118 candidate compounds, which were subscreened using a CaMKAR in vitro assay (FIG. 1C). Validation of these hits in HEK293 cells and by a third-party laboratory led to five potent inhibitors.

[2] = tested on: CaMKII; test: CaMKII activation in cardiomyocytes stimulated by field pacing (simulated tachycardia); type: cell-based
Source text: FIG. 4A, FIG. 4B, and FIG. 4C show compounds that inhibit CaMKII in cardiomyocytes. CaMKII is stimulated in cardiac cells by simulating tachycardia with field pacing. […] When drug concentration is adjusted to match their respective maximum human plasma concentration, four out of the five compounds were able to ameliorate CaMKII (FIG. 4B, FIG. 4C).
(§2) In some embodiments, the presently disclosed subject matter provides a CaMKII activity biosensor, referred to herein as a CaMKII Activity Reporter (CaMKAR), that is tractable for high-throughput screens. Using this sensor, a library of compounds that are safe for human use (i.e., Food and Drug Administration (FDA)-, European Medicines Agency (EMA)-, China Food and Drug Administration (CFDA)-, and Pharmaceuticals and Medical Devices Agency (PMDA)-approved compounds) was screened for previously unidentified CaMKII inhibitors.

[3] = tested on: constitutively active human CaMKIIδ (cardiac isoform); test: High-throughput CaMKAR screen in stable human cell line expressing CaMKAR and constitutively active human CaMKIIδ; type: cell-based
Source text: as §1, §2

[4] = target: CaMKII (Homo sapiens, UniProt Q13557); test: CaMKAR in vitro assay (subscreen of primary hits); type: biochemical
Chain of CaMKII (Homo sapiens, UniProt Q13557) (Q13557 whole entry): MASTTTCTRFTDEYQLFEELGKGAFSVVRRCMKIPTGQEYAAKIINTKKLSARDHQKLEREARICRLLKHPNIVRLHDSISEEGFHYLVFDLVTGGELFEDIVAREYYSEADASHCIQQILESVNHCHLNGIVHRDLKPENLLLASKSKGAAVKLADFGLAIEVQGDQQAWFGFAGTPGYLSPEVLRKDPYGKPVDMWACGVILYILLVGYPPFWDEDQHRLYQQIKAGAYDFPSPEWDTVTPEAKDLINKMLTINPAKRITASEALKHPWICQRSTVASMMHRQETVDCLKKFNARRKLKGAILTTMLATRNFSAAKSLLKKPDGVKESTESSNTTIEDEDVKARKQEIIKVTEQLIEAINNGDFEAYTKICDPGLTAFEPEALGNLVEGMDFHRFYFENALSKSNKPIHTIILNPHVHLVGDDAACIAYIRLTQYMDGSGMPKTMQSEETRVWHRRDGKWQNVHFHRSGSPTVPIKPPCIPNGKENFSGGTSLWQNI
Source text: as §1

In the case of `CCS(=O)(=O)N1CC(CC#N)(n2cc(-c3ncnc4[nH]ccc34)cn2)C1` [Baricitinib], the “Potency of CaMKII inhibition relative to tool inhibitor AS100397” value [1] was “more potent”, the “CaMKII activity in rat cardiac cells” value [2] was “prevented CaMKII activity” and the “Inhibition of cardiac CaMKII (CaMKIIδ) in human cells” value ([3]; human cells) was “potently inhibited”.
With `CN[C@@H]1C[C@H]2O[C@@](C)([C@@H]1OC)n1c3ccccc3c3c4c(c5c6ccccc6n2c5c31)C(=O)NC4` [Staurosporine] the “CaMKII inhibition in CaMKAR in vitro assay” value [4] was “recovered” and the “CaMKII inhibition reported by CaMKAR in primary screen cell line” value ([3]; stable human cell line expressing CaMKAR and constitutively active human CaMKIIδ) was “recovered”.

From patent publication US20260027119A1, “INHIBITORS OF CALCIUM/CALMODULIN-DEPENDENT PROTEIN KINASE II AND THEIR USES” (priority 2022, published 2026)
